In patent US20240294548A1, “TRICYCLIC SULTAMS AND SULFAMIDES AS ANTITUMOR AGENTS” (PELOTON THERAPEUTICS INC., priority 2021, published 2024) one finds IC50 and EC50 data, which are given here for 25 compounds.

Read-outs that look alike come from different tables or passages of the source. A value given as a limit tells only on which side of the number the result lay.

Test [1] relates to HCT116 human colorectal carcinoma cells. Kind of test: CellTiter-Glo assay (cell viability). Type of test: cell-based. Particulars: HCT-116, 72 h, read-out: CTG IC50. Summed up:
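Cells (3,000/well) in DMEM/10% FBS were treated next day with 3-fold serial dilutions (final top […]) in triplicate for 3 days. Viability read by CellTiter-Glo luminescence; IC50 derived from dose-response.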

Test [2] addresses T1, DCAF15 (DDA1-DDB1ΔB-DCAF15Δpro) (Homo sapiens, UniProt Q66K64, DEL276-383).
T1 construct: made in house; host or cells: Sf9 (Bac-to-Bac baculovirus)
The test is described as follows: DCAF15 displacement assay (displacement FRET, probe PT7795). Type of test: binding.

Test [3] deals with T2, DCAF15 RBM39 ternary complex (Homo sapiens, UniProt Q14498+Q66K64, DEL276-383).
T2 construct: Amino acids 150 to 331 of RBM39 were cloned into pGEX4T3; GST (from the pGEX4T3 vector, own knowledge) followed by a TEV cleavage site (N); made in house; host or cells: Sf9 baculovirus (DDB1ΔB/DCAF15); E. coli (RBM39 R1R2)
T2 sequence (Q66K64 with tags, fused parts or gaps DEL276-383): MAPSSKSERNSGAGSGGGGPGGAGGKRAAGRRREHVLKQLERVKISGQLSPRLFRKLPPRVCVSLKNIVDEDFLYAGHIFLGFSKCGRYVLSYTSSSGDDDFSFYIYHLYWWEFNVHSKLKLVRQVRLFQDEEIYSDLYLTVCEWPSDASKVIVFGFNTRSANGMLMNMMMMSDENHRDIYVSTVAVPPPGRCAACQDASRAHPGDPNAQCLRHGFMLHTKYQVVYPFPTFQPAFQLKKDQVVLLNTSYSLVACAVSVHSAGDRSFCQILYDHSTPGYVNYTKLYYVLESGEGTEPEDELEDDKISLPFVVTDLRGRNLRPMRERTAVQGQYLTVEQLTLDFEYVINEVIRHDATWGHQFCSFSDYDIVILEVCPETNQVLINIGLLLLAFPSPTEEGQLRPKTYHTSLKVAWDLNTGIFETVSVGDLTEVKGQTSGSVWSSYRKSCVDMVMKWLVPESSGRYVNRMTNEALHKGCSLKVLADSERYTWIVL
T2 sequence (Q14498 150-331, stated change not applied): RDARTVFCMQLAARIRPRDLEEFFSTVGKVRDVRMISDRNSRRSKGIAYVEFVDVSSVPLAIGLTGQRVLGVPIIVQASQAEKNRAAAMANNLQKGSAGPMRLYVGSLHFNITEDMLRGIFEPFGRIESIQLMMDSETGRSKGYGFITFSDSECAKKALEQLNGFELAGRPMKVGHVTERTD
Kind of test: DCAF15 RBM39 complex formation assay (FRET). Type of test: biochemical. Summed up:
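TR-FRET between Eu-anti-His and APC-anti-FLAG, using 20 nM His-DCAF15/DDB1DB (Sf9) with 50 nM RBM39 RRM1–RRM2 (E. coli) in HEPES pH 7.5 buffer. Compounds run as a 14-point 3-fold series from 1 μM, incubated overnight at 4 °C.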

[4] abbreviates: HCT116 cells, 3 days, CellTiter-Glo luminescence.
Where [5] appears, read: displacement of PT7795 (300 nM), compound 0.01 to 100 μM, 18 hours incubation, read-out: DCAF15 displacement IC50.
Where [6] appears, read: FRET ratio, 20 nM DDB1DB/DCAF15, 50 nM RBM39 R1R2, overnight at 4° C., read-out: DCAF15 RBM39 ternary complex EC50.

Broadly, the IC50 is the concentration that gives 50% inhibition. The EC50 is the concentration that produces a half-maximal response. In the case of `O=S1(=O)Nc2c(cc(Cl)c3c(Cl)c[nH]c23)CN1Cc1cnccc1Cl` [Compound 54, 6,7-dichloro-3-((4-chloropyridin-3-yl)methyl)-1,3,4,9-tetrahydro-[1,2,6] thiadiazino[4,3-g]indole 2,2-dioxide], the IC50 in test [1] (setting [4]) turned out to be 128 nM; in test [2] (setting [5]), 371 nM. The EC50 in test [3] (setting [6]) is 1.2 nM.

Consider `Cc1ccncc1CN1Cc2cc(Cl)c3c(Cl)c[nH]c3c2NS1(=O)=O` [Compound 55, 6,7-dichloro-3-((4-methylpyridin-3-yl)methyl)-1,3,4,9-tetrahydro-[1,2,6] thiadiazino[4,3-g]indole 2,2-dioxide], for which the figures for the IC50 in test [1] (setting [4]) and in test [2] (setting [5]) were 108 nM and 174 nM, respectively. Moreover, the EC50 in test [3] (setting [6]) is 1.7 nM.

Turning to `O=S1(=O)Nc2c(cc(Cl)c3c(Cl)c[nH]c23)CN1Cc1cncc(Cl)c1` [Compound 56, 6,7-dichloro-3-((5-chloropyridin-3-yl)methyl)-1,3,4,9-tetrahydro-[1,2,6] thiadiazino[4,3-g]indole 2,2-dioxide], the IC50 in test [1] (setting [4]) was 184 nM; in test [2] (setting [5]), 1440 nM. Besides, the EC50 in test [3] (setting [6]) came out at 2.6 nM.

As to `O=c1cccc(CN2Cc3cc(Cl)c4c(Cl)c[nH]c4c3NS2(=O)=O)[nH]1` [Compound 57, 6-((6,7-dichloro-2,2-dioxido-4,9-dihydro-[1,2,6]thiadiazino[4,3-g]indol-3(1H)-yl)methyl)pyridin-2(1H)-one], the results for the IC50 in test [1] (setting [4]) and in test [2] (setting [5]) were 525 nM and 1000 nM, respectively. Also, in test [3] (setting [6]), the EC50 is 4 nM.

Take `N#Cc1c[nH]c2c3c(cc(Cl)c12)CNS(=O)(=O)N3` [Compound 58, 6-chloro-1,3,4,9-tetrahydro-[1,2,6]thiadiazino[4,3-g]indole-7-carbonitrile 2,2-dioxide]: the IC50 is 5000 nM in test [1] (setting [4]) and 14900 nM in test [2] (setting [5]). The EC50 in test [3] (setting [6]) was determined as 46.2 nM.

Consider `O=S1(=O)Nc2c(cc(Cl)c3c(Cl)c[nH]c23)CN1Cc1cnccn1` [Compound 59, 6,7-dichloro-3-(pyrazin-2-ylmethyl)-1,3,4,9-tetrahydro-[1,2,6] thiadiazino[4,3-g]indole 2,2-dioxide], for which the values for the IC50 in test [1] (setting [4]) and in test [2] (setting [5]) were 120 nM and 325 nM, respectively. In addition, the EC50 in test [3] (setting [6]) is 2 nM.

As for `O=c1cc(CN2Cc3cc(Cl)c4c(Cl)c[nH]c4c3NS2(=O)=O)cc[nH]1` [Compound 60, 4-((6,7-dichloro-2,2-dioxido-4,9-dihydro-[1,2,6]thiadiazino[4,3-g]indol-3(1H)-yl)methyl)pyridin-2(1H)-one], the IC50 amounted to 2840 nM in test [1] (setting [4]) and 162 nM in test [2] (setting [5]). Besides, in test [3] (setting [6]), the EC50 turned out to be 2.4 nM.

For the compound `O=S1(=O)Nc2c(cc(Cl)c3c(Cl)c[nH]c23)CN1Cc1ccnc(Cl)c1` [Compound 63, 6,7-dichloro-3-((2-chloropyridin-4-yl)methyl)-1,3,4,9-tetrahydro-[1,2,6] thiadiazino[4,3-g]indole 2,2-dioxide], the IC50 in test [1] (setting [4]) is 351 nM; in test [2] (setting [5]) it was 328 nM. Besides, the EC50 in test [3] (setting [6]) stood at 1 nM.

Consider `COCCN1Cc2cc(Cl)c3c(Cl)n[nH]c3c2NS1(=O)=O` [Compound 64, 6,7-dichloro-3-(2-methoxyethyl)-1,3,4,9-tetrahydro-[1,2,6]thiadiazino[4,3-g]indazole 2,2-dioxide], for which the values for the IC50 in test [1] (setting [4]) and in test [2] (setting [5]) were 5000 nM and 4560 nM, respectively. In addition, in test [3] (setting [6]), the EC50 amounted to 10 nM.

As for `Cn1cc(CN2Cc3cc(Cl)c4c(Cl)c[nH]c4c3NS2(=O)=O)ccc1=O` [Compound 65, 5-((6,7-dichloro-2,2-dioxido-4,9-dihydro-[1,2,6]thiadiazino[4,3-g]indol-3(1H)-yl)methyl)-1-methylpyridin-2(1H)-one], the IC50 in test [1] (setting [4]) was 493 nM; in test [2] (setting [5]), 934 nM. In addition, the EC50 in test [3] (setting [6]) was found to be 1.9 nM.

Regarding `CC1(C)Cc2cc(Cl)c3c(Cl)c[nH]c3c2NS1(=O)=O` [Compound 66, 6,7-dichloro-3,3-dimethyl-1,3,4,9-tetrahydro-[1,2]thiazino[4,3-g]indole 2,2-dioxide], the results for the IC50 in test [1] (setting [4]) and in test [2] (setting [5]) were 5000 nM and at least 100000 nM, respectively. Further, the EC50 in test [3] (setting [6]) is 108 nM.

Turning to `O=S1(=O)Nc2c(cc(Cl)c3c(Cl)c[nH]c23)CN1Cc1ccnnc1` [Compound 67, 6,7-dichloro-3-(pyridazin-4-ylmethyl)-1,3,4,9-tetrahydro-[1,2,6] thiadiazino[4,3-g]indole 2,2-dioxide], the IC50 is 320 nM in test [1] (setting [4]) and 452 nM in test [2] (setting [5]). The EC50 in test [3] (setting [6]) was 2 nM.

For the compound `COCCCN1Cc2cc(Cl)c3c(Cl)c[nH]c3c2NS1(=O)=O` [Compound 68, 6,7-dichloro-3-(3-methoxypropyl)-1,3,4,9-tetrahydro-[1,2,6] thiadiazino[4,3-g]indole 2,2-dioxide], the IC50 is 205 nM in test [1] (setting [4]) and 630 nM in test [2] (setting [5]). In addition, in test [3] (setting [6]), the EC50 worked out at 2.3 nM.

Take `O=S1(=O)Nc2c(cc(Cl)c3c(Cl)c[nH]c23)CN1Cc1ccc(F)cc1` [Compound 69, 6,7-dichloro-3-(4-fluorobenzyl)-1,3,4,9-tetrahydro-[1,2,6] thiadiazino[4,3-g]indole 2,2-dioxide]: the IC50 in test [1] (setting [4]) was determined as 1200 nM; in test [2] (setting [5]), 7560 nM. The EC50 in test [3] (setting [6]) is 3.9 nM.

`O=S1(=O)Nc2c(cc(Cl)c3c(Cl)c[nH]c23)CN1Cc1ccccc1F` [Compound 70, 6,7-dichloro-3-(2-fluorobenzyl)-1,3,4,9-tetrahydro-[1,2,6] thiadiazino[4,3-g]indole 2,2-dioxide]: the IC50 in test [1] (setting [4]) worked out at 833 nM; in test [2] (setting [5]), 1950 nM. For the same compound, the EC50 in test [3] (setting [6]) came to 3.3 nM.

Consider `O=S1(=O)Nc2c(cc(Cl)c3c(Cl)c[nH]c23)CN1CCN1CCOCC1` [Compound 71, 6,7-dichloro-3-(2-morpholinoethyl)-1,3,4,9-tetrahydro-[1,2,6] thiadiazino[4,3-g]indole 2,2-dioxide], for which the IC50 in test [1] came to 353 nM; in test [2] it was 952 nM. The EC50 in test [3] was found to be 2.1 nM.

On to `CS(=O)(=O)N1CCC(CN2Cc3cc(Cl)c4c(Cl)c[nH]c4c3NS2(=O)=O)CC1` [Compound 72, 6,7-dichloro-3-((1-(methylsulfonyl)piperidin-4-yl)methyl)-1,3,4,9-tetrahydro-[1,2,6]thiadiazino[4,3-g]indole 2,2-dioxide], for which the 50% inhibitory concentration (IC50) in test [1] (setting [4]) was 150 nM; in test [2] (setting [5]) it was 223 nM. For the same compound, the EC50 in test [3] (setting [6]) was determined as 1.2 nM.

On to `O=S1(=O)Nc2c(cc(Cl)c3c(Cl)c[nH]c23)CN1Cc1cccc(O)c1` [Compound 73, 6,7-dichloro-3-(3-hydroxybenzyl)-1,3,4,9-tetrahydro-[1,2,6] thiadiazino[4,3-g]indole 2,2-dioxide], for which the IC50 in test [1] (setting [4]) amounted to 418 nM; in test [2] (setting [5]), 1650 nM. The EC50 in test [3] (setting [6]) turned out to be 1.3 nM.

Take `Nc1ccccc1CN1Cc2cc(Cl)c3c(Cl)c[nH]c3c2NS1(=O)=O` [Compound 74, 3-(2-aminobenzyl)-6,7-dichloro-1,3,4,9-tetrahydro-[1,2,6] thiadiazino[4,3-g]indole 2,2-dioxide]: the IC50 in test [1] (setting [4]) amounted to 171 nM; in test [2] (setting [5]) it was 301 nM. Besides, the EC50 in test [3] (setting [6]) turned out to be 1.3 nM.

`O=S1(=O)Nc2c(cc(Cl)c3c(Cl)c[nH]c23)CN1Cc1cccc(F)c1` [Compound 75, 6,7-dichloro-3-(3-fluorobenzyl)-1,3,4,9-tetrahydro-[1,2,6] thiadiazino[4,3-g]indole 2,2-dioxide]: the IC50 was 850 nM in test [1] (setting [4]) and 4320 nM in test [2] (setting [5]). Moreover, the EC50 in test [3] (setting [6]) stood at 2.3 nM.

With `Nc1cccc(CN2Cc3cc(Cl)c4c(Cl)c[nH]c4c3NS2(=O)=O)c1` [Compound 76, 3-(3-aminobenzyl)-6,7-dichloro-1,3,4,9-tetrahydro-[1,2,6] thiadiazino[4,3-g]indole 2,2-dioxide], the IC50 in test [1] (setting [4]) was determined as 254 nM; in test [2] (setting [5]) it was 569 nM. Besides, in test [3] (setting [6]), the EC50 is 1.2 nM.

Turning to `CN1CCC(CN2Cc3cc(Cl)c4c(Cl)c[nH]c4c3NS2(=O)=O)CC1` [Compound 83, 6,7-dichloro-3-((1-methylpiperidin-4-yl)methyl)-1,3,4,9-tetrahydro-[1,2,6]thiadiazino[4,3-g]indole 2,2-dioxide], the values for the IC50 in test [1] (setting [4]) and in test [2] (setting [5]) were 66.9 nM and 781 nM, respectively. In test [3] (setting [6]), the EC50 was found to be 2.3 nM.

On to `O=S1(=O)Nc2c(cc(Cl)c3c(Cl)c[nH]c23)CN1CCc1ccccc1` [Compound 84, 6,7-dichloro-3-phenethyl-1,3,4,9-tetrahydro-[1,2,6] thiadiazino[4,3-g]indole 2,2-dioxide], for which the IC50 in test [1] (setting [4]) was 1790 nM; in test [2] (setting [5]), 33100 nM. In test [3] (setting [6]), the EC50 worked out at 4.3 nM.

With `O=S1(=O)Nc2c(cc(Cl)c3c(Cl)c[nH]c23)CN1CC1CC(F)(F)C1` [Compound 85, 6,7-dichloro-3-((3,3-difluorocyclobutyl)methyl)-1,3,4,9-tetrahydro-[1,2,6] thiadiazino[4,3-g]indole 2,2-dioxide], the half-inhibitory concentration (IC50) in test [1] (setting [4]) is 302 nM; in test [2] (setting [5]) it was 8380 nM. Further, the EC50 in test [3] (setting [6]) came to 2 nM.

As for `O=S1(=O)Nc2c(cc(Cl)c3c(Cl)c[nH]c23)CN1CC1CCOC1` (stereo not drawn) [Compound 86, 6,7-dichloro-3-((tetrahydrofuran-3-yl)methyl)-1,3,4,9-tetrahydro-[1,2,6] thiadiazino[4,3-g]indole 2,2-dioxide], the IC50 in test [1] (setting [4]) is 121 nM; in test [2] (setting [5]), 410 nM. Also, the EC50 in test [3] (setting [6]) worked out at 1.3 nM.
